Data published in patent US11952365B2, “Anti-viral compounds” (Aligos Therapeutics, Inc., priority 2020, dated 2024).
Where two headings read alike, the source gives them in different places.

Key:
HeLa cells = assay: Cytotoxicity plates without OC43 virus (cell-titer-glo); type: cell-based, human; settings: class symbols
How it was run: (§1)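 HeLa cells seeded overnight, then treated with serially diluted compounds in 2% FBS EMEM, uninfected, in parallel with the OC43 antiviral plates. Incubated 6 days at 33 °C; viability read by CellTiter-Glo luminescence.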

[1] = system: SARS-CoV-2-GHB-03021/2020; assay: microbe, parasite or virus in culture; type: cell-based; settings: read-out: VeroE6 + CP (EC50)
[2] = system: human beta-coronavirus OC43; assay: microbe, parasite or virus in culture; type: cell-based; settings: OC43 in HeLa cells, 6 days at 33° C., class symbols, read-out: EC50
HRV3C = HRV3C (Human rhinovirus 14, UniProt P03303); assay: HRV3C protease assay (duplex, SAMDI-MS); type: biochemical, HRV; settings: HRV3C, 30 mins preincubation, read-out: HRV IC50
How it was run: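 Steps: enzymes (HRV3C plus 3CLpro) and compound preincubated 30 min; two peptide substrates added; 30 min reaction at ambient temperature; formic acid quench; SAMDI capture and reflector-positive TOF analysis. Product quantified against internal standard peptides. IC50 by four-parameter equation.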

Vero E6-eGFP cells = settings: read-out: VeroE6 + CP (CC50); Vero E6-eGFP cells with CP-100356, absence of virus, MTS; numeric bounds
3CLpro [3] = target: T1, 3CLpro (Severe acute respiratory syndrome coronavirus 2, UniProt P0DTD1); assay: SARS-CoV-2 3CLpro protease assay (duplex, SAMDI-MS); type: biochemical; parameters: For the duplex assay, 3CLpro and HRV3C was added; settings: 3CLpro, 30 mins preincubation, class symbols; read-out: SARS-Cov-2 IC50
human cathepsin L = target: T2, human cathepsin L (Homo sapiens, UniProt P07711); assay: cathepsin L assay; type: biochemical; settings: 10 pM human cathepsin L, Z-FR-AMC 2 μM, class symbols
T2 construct: purchased R&D Systems
How it was run: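 Human cathepsin L at 10 pM was preincubated 30 min with compound, then reaction started with Z-FR-AMC (2 μM final). Fluorescence (355/460 nm) read every 2 min for 30 min; IC50 from four-parameter curve fit.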

SARS-CoV-2 = settings: cited from earlier work
3CLpro [4] = target: T1, 3CLpro; settings: cited from earlier work
[5] = system: SARS-CoV-2-GHB-03021/2020; assay: SARS-CoV-2 Infection Model in Huh7 Cells; type: cell-based; settings: SARS-CoV-2, day 4 p.i., MTS, class symbols
Huh7 cells = settings: read-out: Huh-7 (CC50), MTS, numeric bounds
in vitro [6] = settings: African green monkey, VeroE6 + CP (CC50), Vero E6-eGFP cells with CP-100356, absence of virus, MTS; numeric bounds
[7] = Cytotoxicity plates without OC43 virus (cell-titer-glo); type: cell-based, human; settings: human; HeLa cells without OC43 virus, class symbols
How it was run: as §1

in vitro [8] = settings: human

Compound	CC50 (HeLa cells)	EC50 [2]	IC50 (HRV3C; class symbols)	CC50 (Vero E6-eGFP cells)	IC50 (3CLpro [3])	IC50 (human cathepsin L)	IC50 (HRV3C; bound)	other results
N-benzyl-3-[[(2S)-1-(1H-indole-2-carbonyl)pyrrolidin-2-yl]formamido]-2-oxo-4-[(3S)-2-oxopyrrolidin-3-yl]butanamide [Compound 3]	> 10 µM	10 to 100 µM	2 to 20 µM	> 100 µM	20 to 100 µM	–	–	EC50 [1]: > 100 µM
COc1cccc2[nH]c(C(=O)N3Cc4ccccc4[C@@H]3C(=O)N[C@@H](C[C@@H]3CCCNC3=O)C(=O)CO)cc12 [Compound 73_2]	> 10 µM	10 to 100 µM	–	–	2 to 20 µM	≥ 10 µM	> 10 µM	–
CN1CCN(C(=O)N[C@@H](Cc2ccccc2)C(=O)N[C@H](/C=C/S(=O)(=O)c2ccccc2)CCc2ccccc2)CC1 [Compound K117777]	–	–	–	–	–	–	–	inhibition of SARS-CoV-2 (SARS-CoV-2; in VeroE6, A549-ACE2 and/or HeLa-ACE2): potent inhibition; antiviral effect (SARS-CoV-2; when TMPRSS2 was expressed in A549-ACE2): abolished; inhibitory effect on the 3CLpro (3CLpro [4]): lacks an inhibitory effect
COc1cccc2[nH]c(C(=O)N3Cc4ccccc4[C@H]3C(=O)N[C@@H](C[C@@H]3CCCNC3=O)C(=O)CO)cc12 [Compound 73_1]	> 10 µM	0.1 to 1 µM	–	–	0.02 to 0.2 µM	≥ 10 µM	> 10 µM	–
O=C1NCC[C@H]1C[C@H](NC(=O)[C@@H]1[C@H]2CCC[C@H]2CN1C(=O)c1cc2c([nH]1)C1CCC2C1)C(=O)CO (stereo partly drawn) [Compound 157, (1S,3aR,6aS)-2-{3-azatricyclo[5.2.1.0^{2,6}]deca-2(6),4-diene-4-carbonyl}-N-[(2S)-4-hydroxy-3-oxo-1-[(3S)-2-oxopyrrolidin-3-yl]butan-2-yl]-hexahydro-1H-cyclopenta[c]pyrrole-1-carboxamide]	> 10 µM	0.1 to 1 µM	–	> 50 µM	0.02 to 0.2 µM	≥ 10 µM	–	EC50 ([5]; read-out: Huh-7 (EC50)): 1 to 10 µM; CC50 (Huh7 cells): > 50 µM
COc1cccc2[nH]c(C(=O)N3C[C@@H]4CCC[C@@H]4[C@H]3C(=O)N[C@@H](C[C@@H]3CCNC3=O)C(=O)CO)cc12 [Compound 27, (1S,3aR,6aS)—N-[(2S)-4-hydroxy-3-oxo-1-[(3S)-2-oxopyrrolidin-3-yl]butan-2-yl]-2-(4-methoxy-1H-indole-2-carbonyl)-hexahydro-1H-cyclopenta[c]pyrrole-1-carboxamide]	–	–	2 to 20 µM	–	< 0.02 µM	≥ 10 µM	–	CC50 (in vitro [6]): > 100 µM; CC50 at 6 days [7]: > 10 µM; EC50 ([1]; Severe acute respiratory syndrome coronavirus 2, Vero C1008, 96 h): 1 to 10 µM; EC50 ([2]; Betacoronavirus 1, OC43, HeLa, 144 h): 0.1 to 1 µM; EC50 ([5]; Severe acute respiratory syndrome coronavirus 2, Huh-7, 96 h): 1 to 10 µM; CC50 (in vitro [8]): > 100 µM
